Experimental data reported in US20040162297A1, “Adenosine derivative in polymorph I form” (priority 2001, published 2004).

Assay: stability of the polymorphic form at ambient temperatures
Type: physicochemical

## CC(C)(C)c1nnc([C@H]2O[C@@H](n3cnc4c(Nc5ccc(Cl)cc5F)ncnc43)[C@H](O)[C@@H]2O)o1 [Polymorph I, (2S,3S,4R,5R)-2-(5-tert-butyl-[1,3,4]-oxadiazol-2-yl)-5-[6-(4-chloro-2-fluorophenylamino)-9H-purin-9-yl]-tetrahydrofuran-3,4-diol]
  stability at ambient temperatures: particular stability
